Bridge positions count the residues as written; N and C are the ends. Square brackets hold non-standard residues; d marks the D form. Peptide text beside a SMILES is read from it. * marks the point of attachment. ξ: configuration not given here. Phe(3-CF3) = N[C@@H](Cc1cccc(C(F)(F)F)c1)C(=O)O; Ala(morpholin-4-yl) = N[C@@H](CN1CCOCC1)C(=O)O; Phe(4-COOH) = N[C@@H](Cc1ccc(C(=O)O)cc1)C(=O)O; Bip = N[C@@H](Cc1ccc(-c2ccccc2)cc1)C(=O)O; NH(CH2)14COOH = O=C(O)CCCCCCCCCCCCCCN*; NH(CH2)12COOH = O=C(O)CCCCCCCCCCCCN*; Val(3-OH) = CC(C)(O)[C@H](N)C(=O)O; Cha = N[C@@H](CC1CCCCC1)C(=O)O; Thr(3ξ) = CC(O)[C@H](N)C(=O)O; dDab = NCC[C@@H](N)C(=O)O; Carboxymethyl = O=C(O)C*; Nle = CCCC[C@H](N)C(=O)O; Orn = NCCC[C@H](N)C(=O)O; Aun = NCCCCCCCCCCC(=O)O; Dab = NCC[C@H](N)C(=O)O; AEEA = NCCOCCOCC(=O)O
Target: T1, PD-1/PD-L1 interaction (PE-labeled human PD-L1-Ig binding to Jurkat cell line over-expressing human PD-1) (Homo sapiens, UniProt Q15116)
T1 construct: expressed in transfected cells; host or cells: Jurkat
Assay: Jurkat-PD-1 Cell Binding High-Content Screening Assay (CBA)
Assay type: cell-based
Settings: Jurkat cell line over-expressing human PD-1; PE-labeled PD-L1-Ig 20 nM final; read-out: Jurkat hPD1-PDL1 IC50
In short: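 Binding of fluorescent PD-L1-Ig (20 nM final) to Jurkat-PD-1 cells was measured by automated imaging after 1 h, following a 2 h compound pre-treatment at 37° C.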

T1 sequence (Q15116 25-288): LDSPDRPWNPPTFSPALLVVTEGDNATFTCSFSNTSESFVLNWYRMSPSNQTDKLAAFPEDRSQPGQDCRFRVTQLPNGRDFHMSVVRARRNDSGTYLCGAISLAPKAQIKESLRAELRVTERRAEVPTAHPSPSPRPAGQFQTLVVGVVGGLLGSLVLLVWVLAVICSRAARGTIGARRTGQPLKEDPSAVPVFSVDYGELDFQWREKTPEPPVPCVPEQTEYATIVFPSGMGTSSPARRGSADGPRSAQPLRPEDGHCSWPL

Structure (SMILES) | IC50
CC(C)C[C@H]1NC(=O)[C@H](CCCN)NC(=O)[C@H](Cc2ccc(OCC(=O)O)cc2)NC(=O)[C@H](Cc2ccc(-c3ccccc3)cc2)NC(=O)[C@H](Cc2ccc(OCC(=O)O)cc2)NC(=O)[C@H](Cc2cccc(C(F)(F)F)c2)NC(=O)[C@H](CC(=O)O)NC(=O)[C@H](Cc2ccc(OCC(=O)O)cc2)NC(=O)[C@H](CCN)NC(=O)CSC[C@@H](C(=O)N[C@@H](CCN)C(=O)NCCCCCCCCCCC(=O)O)NC(=O)[C@H](C(C)O)NC(=O)[C@H](C(C)C)NC(=O)[C@H](CC2CCCCC2)NC(=O)[C@H](CCN)NC1=O (stereo partly drawn) [Compound 3820] ({CH2CO}-[Dab]Y(Carboxymethyl)D[Phe(3-CF3)]Y(Carboxymethyl)[Bip]Y(Carboxymethyl)[Orn][dL][Dab][Cha]V[Thr(3ξ)]C[Dab][Aun]-OH; thioether N-14) | 6.8 nM
CC(C)C[C@H]1NC(=O)[C@H](Cc2cnc[nH]2)NC(=O)[C@H](Cc2ccc(OCC(=O)O)cc2)NC(=O)[C@H](Cc2ccc(-c3ccccc3)cc2)NC(=O)[C@H](Cc2ccc(C(=O)O)cc2)NC(=O)[C@H](Cc2cccc(C(F)(F)F)c2)NC(=O)[C@H](CC(=O)O)NC(=O)[C@H](Cc2ccc(OCC(=O)O)cc2)NC(=O)[C@H](C(C)O)NC(=O)CSC[C@@H](C(=O)N[C@@H](CCN)C(=O)NCCCCCCCCCCC(=O)O)NC(=O)[C@H](C(C)O)NC(=O)[C@H](C(C)C)NC(=O)[C@H](CC2CCCCC2)NC(=O)[C@H](CCN)NC1=O (stereo partly drawn) [Compound 3821] ({CH2CO}-[Thr(3ξ)]Y(Carboxymethyl)D[Phe(3-CF3)][Phe(4-COOH)][Bip]Y(Carboxymethyl)H[dL][Dab][Cha]V[Thr(3ξ)]C[Dab][Aun]-OH; thioether N-14) | 4 nM
CCCC[C@@H]1NC(=O)[C@H](C(C)C)NC(=O)[C@H](CC2CCCCC2)NC(=O)[C@H](CCN)NC(=O)[C@@H](CC(C)C)NC(=O)[C@H](CCCN)NC(=O)[C@H](Cc2ccc(OCC(=O)O)cc2)NC(=O)[C@H](Cc2ccc(-c3ccccc3)cc2)NC(=O)[C@H](Cc2ccc(OCC(=O)O)cc2)NC(=O)[C@H](Cc2cccc(C(F)(F)F)c2)NC(=O)[C@H](CC(=O)O)NC(=O)[C@H](Cc2ccc(C(=O)O)cc2)NC(=O)[C@H](CCN)NC(=O)CSC[C@@H](C(=O)N[C@@H](CCN)C(=O)NCCCCCCCCCCC(=O)O)NC1=O [Compound 3825] ({CH2CO}-[Dab][Phe(4-COOH)]D[Phe(3-CF3)]Y(Carboxymethyl)[Bip]Y(Carboxymethyl)[Orn][dL][Dab][Cha]V[Nle]C[Dab][Aun]-OH; thioether N-14) | 19.7 nM
CC(C)C[C@H]1NC(=O)[C@H](CCCN)NC(=O)[C@H](Cc2ccc(OCC(=O)O)cc2)NC(=O)[C@H](Cc2ccc(-c3ccccc3)cc2)NC(=O)[C@H](Cc2ccc(OCC(=O)O)cc2)NC(=O)[C@H](Cc2cccc(C(F)(F)F)c2)NC(=O)[C@H](CC(=O)O)NC(=O)[C@H](Cc2ccc(OCC(=O)O)cc2)NC(=O)[C@H](CC2CCCCC2)NC(=O)CSC[C@@H](C(=O)N[C@H](CCN)C(=O)NCCOCCOCC(=O)NCCCCCCCCCCCCC(=O)O)NC(=O)[C@H](CC(=O)O)NC(=O)[C@H](C(C)C)NC(=O)[C@H](CC2CCCCC2)NC(=O)[C@H](CCN)NC1=O [Compound 3826] ({CH2CO}-[Cha]Y(Carboxymethyl)D[Phe(3-CF3)]Y(Carboxymethyl)[Bip]Y(Carboxymethyl)[Orn][dL][Dab][Cha]VDC[dDab][AEEA]-{NH(CH2)12COOH}; thioether N-14) | 72.5 nM
CCCC[C@@H]1NC(=O)CSC[C@@H](C(=O)N[C@H](CCN)C(=O)NCCOCCOCC(=O)NCCOCCOCC(=O)NCCCCCCCCCCCCC(=O)O)NC(=O)[C@H](CO)NC(=O)[C@H](C(C)(C)O)NC(=O)[C@H](CC2CCCCC2)NC(=O)[C@H](CCN)NC(=O)[C@@H](CC(C)C)NC(=O)[C@H](CCCN)NC(=O)[C@H](Cc2ccc(C(=O)O)cc2)NC(=O)[C@H](Cc2ccc(-c3ccccc3)cc2)NC(=O)[C@H](Cc2ccc(C(=O)O)cc2)NC(=O)[C@H](Cc2cccc(C(F)(F)F)c2)NC(=O)[C@H](CC(=O)O)NC(=O)[C@H](Cc2ccc(OCC(=O)O)cc2)NC1=O [Compound 3827] ({CH2CO}-[Nle]Y(Carboxymethyl)D[Phe(3-CF3)][Phe(4-COOH)][Bip][Phe(4-COOH)][Orn][dL][Dab][Cha][Val(3-OH)]SC[dDab][AEEA][AEEA]-{NH(CH2)12COOH}; thioether N-14) | 141 nM

Other lines, results leading:

IC50 | Structure (SMILES)
216 nM | CC(C)C[C@H]1NC(=O)[C@H](CCCN)NC(=O)[C@H](Cc2ccc(C(=O)O)cc2)NC(=O)[C@H](Cc2ccc(-c3ccccc3)cc2)NC(=O)[C@H](Cc2ccc(C(=O)O)cc2)NC(=O)[C@H](Cc2cccc(C(F)(F)F)c2)NC(=O)[C@H](CC(=O)O)NC(=O)[C@H](Cc2ccc(OCC(=O)O)cc2)NC(=O)[C@H](CN2CCOCC2)NC(=O)CSC[C@@H](C(=O)N[C@H](CCN)C(=O)NCCOCCOCC(=O)NCCOCCOCC(=O)NCCCCCCCCCCCCC(=O)O)NC(=O)[C@H](CO)NC(=O)[C@H](C(C)(C)O)NC(=O)[C@H](CC2CCCCC2)NC(=O)[C@H](CCN)NC1=O [Compound 3828] ({CH2CO}-[Ala(morpholin-4-yl)]Y(Carboxymethyl)D[Phe(3-CF3)][Phe(4-COOH)][Bip][Phe(4-COOH)][Orn][dL][Dab][Cha][Val(3-OH)]SC[dDab][AEEA][AEEA]-{NH(CH2)12COOH}; thioether N-14)
19.2 nM | CCCC[C@@H]1NC(=O)CSC[C@@H](C(=O)N[C@@H](CCN)C(=O)NCCOCCOCC(=O)NCCOCCOCC(=O)NCCCCCCCCCCCCC(=O)O)NC(=O)[C@H](CO)NC(=O)[C@H](C(C)(C)O)NC(=O)[C@H](CC2CCCCC2)NC(=O)[C@H](CCN)NC(=O)[C@@H](CC(C)C)NC(=O)[C@H](CCCN)NC(=O)[C@H](Cc2ccc(OCC(=O)O)cc2)NC(=O)[C@H](Cc2ccc(-c3ccccc3)cc2)NC(=O)[C@H](Cc2ccc(OCC(=O)O)cc2)NC(=O)[C@H](Cc2cccc(C(F)(F)F)c2)NC(=O)[C@H](CC(=O)O)NC(=O)[C@H](Cc2ccc(OCC(=O)O)cc2)NC1=O [Compound 3829] ({CH2CO}-[Nle]Y(Carboxymethyl)D[Phe(3-CF3)]Y(Carboxymethyl)[Bip]Y(Carboxymethyl)[Orn][dL][Dab][Cha][Val(3-OH)]SC[Dab][AEEA][AEEA]-{NH(CH2)12COOH}; thioether N-14)
200 nM | CC(C)C[C@H]1NC(=O)[C@H](CCCN)NC(=O)[C@H](Cc2ccc(C(=O)O)cc2)NC(=O)[C@H](Cc2ccc(-c3ccccc3)cc2)NC(=O)[C@H](Cc2ccc(C(=O)O)cc2)NC(=O)[C@H](Cc2cccc(C(F)(F)F)c2)NC(=O)[C@H](CC(=O)O)NC(=O)[C@H](Cc2ccc(OCC(=O)O)cc2)NC(=O)[C@H](CC2CCCCC2)NC(=O)CSC[C@@H](C(=O)N[C@@H](CCN)C(=O)NCCOCCOCC(=O)NCCOCCOCC(=O)NCCCCCCCCCCCCCCC(=O)O)NC(=O)[C@H](CO)NC(=O)[C@H](C(C)(C)O)NC(=O)[C@H](CC2CCCCC2)NC(=O)[C@H](CCN)NC1=O [Compound 3830] ({CH2CO}-[Cha]Y(Carboxymethyl)D[Phe(3-CF3)][Phe(4-COOH)][Bip][Phe(4-COOH)][Orn][dL][Dab][Cha][Val(3-OH)]SC[Dab][AEEA][AEEA]-{NH(CH2)14COOH}; thioether N-14)
